# pEC50: −log10 of the molar value.
# Target: T1, hmGluR4 (Homo sapiens, UniProt Q14833)
# T1 construct: host or cells: HEK293T
# Test: HEK-293 mGluR4 cells cAMP assay with EC20 L-Glutamate (HTRF)
# Type: cell-based
# Details: positive allosteric activity at EC20 L-Glutamate, 10 μM Forskolin, HEK293T mGluR4 cells, cAMP HTRF; read-out: hrmGluR4/HEK293T-hmGluR4 (EC50)
# Experimental: II. Biological Assays HEK-293 mGluR4 Cells cAMP Assay with EC20 L-Glutamate
# Using mGluR4 suspension cell format, 10 μM Forskolin (final conc.) used to induce the production of cAMP.
# Test the positive allosteric activity of the compounds of the invention at EC20 (2.3 μM for mGluR4 and 4.3 μM for mGluR6) L-Glutamate,
# cAMP dymanic2 kit is intended for the direct quantitative determination of cAMP and its principle is based on HTRF technology.
# • Cells: HEK293T mGluR4 cells from Multispan, cat# C1191a lot# C1191a-040910 • Culture Media: DMEM+GlutaMAX1+10% dialyzed FBS, 100 mM Sodium Pyruvate, 1 ug/ml puromycin. • Glutamine Starvation Media: DMEM without GlutaMax for plating the cells (glutamine starvation overnight). DMEM high Glucose, without phenol red, glutamine, or sodium pyruvate+10% dialyzed FBS, 100 mM Sodium Pyruvate, 1 ug/ml puromycin, 10 mM Hepes. • Hanks' balanced Salt Solution, HBSS from Invitrogen • Greiner 384 well white low volume high base plate (784075) • cAMP dynamic2 from Cisbio Bioassays • Glutamate: L-Glutamaic acid, monosodium salt, Monohydrate, 98%, from Sigma-Aldrich • Cell Preparation: split cells at 80%-90% confluence. The following day, rinse the cells with DMEM without GlutaMax and change to Glutamine Starvation Media. Incubate overnight. Assay: • Prepare compound plate: Perform compound serial dilution (uses Matrix 4341 plate), using the Bravo liquid handling platform protocol (compound serial dilution) which adds DMSO to columns 1-24 (except cols. 3 and 13). Serial dilute compounds located in columns 3 and 13 at a 1:3 ratio; 10 points (10 ul of 3 mM compound into 20 ul DMSO). Use the Bravo liquid handling platform to transfer 1 ul from the serial dilution plate into Matrix 4314 plate to create stamp plates. Prepare Compound Dilution Buffer: • Dilute 20 mM Forskolin (in DMSO) stock solution in HBSS buffer to make a 20 uM solution (forskolin buffer; 2× solution). To the forskolin buffer, add glutamate to a concentration of 8 uM (compound dilution buffer; 2× EC20 glutamate and forskolin). • Using a multidrop, add 50 ul/well of compound dilution buffer to columns 1-22 of the 2 ul compound stamp plate. Columns 23 and 24 receive forskolin buffer containing 400 uM glutamate (EC100 glutamate; 2× solution). Columns 1 and 2 receive compound dilution buffer containing EC20 glutamate, which is the basal control. • Add a glutamate dose response to row P of compound plate. Prepare the dose response by serial diluting glutamate at a 1:3 ratio in forskolin buffer starting at 2 mM glutamate (2×). Dilute the glutamate 9 times and transfer to compound plate. Prepare Cell Plates: • Harvest cells: Rinse cells with pre-warmed HBSS-10 mM HEPES (without Ca Mg) and dissociate the cells from the flask with versene. Centrifuge the cells, remove the supernatant and suspend in pre-warmed HBSS+10 mM Hepes. Count the cells and centrifuge. Remove the supernatant and suspend the cells in HBSS+Hepes (with Ca Mg) at a density of 400,000 cells/ml. Perform Assay: • Dispense 5 ul from the diluted compound plate into Greiner low volume cell plate using the Bravo liquid handling platform. Using a Multidrop with the small tubing cassette, dispense 5 ul of cells (2000 cells/well) onto the compounds contained in the low volume plates. Incubate the cells at 37° C., 5% CO2 for 30 minutes in the incubator. Assay for cAMP: • Prepare cAMP-d2 and anti-cAMP-Crytate according to the instructions for the two step assay (see Cisbio manual) and add 10 ul of the mixed reagent to each well of the assay plate using the Multidrop. Incubate at room temperature for 60 minutes and read on the Envision plate reader using the mGluR low volume cAMP HTRF 384 well protocol.
# T1 sequence (Q14833 33-912): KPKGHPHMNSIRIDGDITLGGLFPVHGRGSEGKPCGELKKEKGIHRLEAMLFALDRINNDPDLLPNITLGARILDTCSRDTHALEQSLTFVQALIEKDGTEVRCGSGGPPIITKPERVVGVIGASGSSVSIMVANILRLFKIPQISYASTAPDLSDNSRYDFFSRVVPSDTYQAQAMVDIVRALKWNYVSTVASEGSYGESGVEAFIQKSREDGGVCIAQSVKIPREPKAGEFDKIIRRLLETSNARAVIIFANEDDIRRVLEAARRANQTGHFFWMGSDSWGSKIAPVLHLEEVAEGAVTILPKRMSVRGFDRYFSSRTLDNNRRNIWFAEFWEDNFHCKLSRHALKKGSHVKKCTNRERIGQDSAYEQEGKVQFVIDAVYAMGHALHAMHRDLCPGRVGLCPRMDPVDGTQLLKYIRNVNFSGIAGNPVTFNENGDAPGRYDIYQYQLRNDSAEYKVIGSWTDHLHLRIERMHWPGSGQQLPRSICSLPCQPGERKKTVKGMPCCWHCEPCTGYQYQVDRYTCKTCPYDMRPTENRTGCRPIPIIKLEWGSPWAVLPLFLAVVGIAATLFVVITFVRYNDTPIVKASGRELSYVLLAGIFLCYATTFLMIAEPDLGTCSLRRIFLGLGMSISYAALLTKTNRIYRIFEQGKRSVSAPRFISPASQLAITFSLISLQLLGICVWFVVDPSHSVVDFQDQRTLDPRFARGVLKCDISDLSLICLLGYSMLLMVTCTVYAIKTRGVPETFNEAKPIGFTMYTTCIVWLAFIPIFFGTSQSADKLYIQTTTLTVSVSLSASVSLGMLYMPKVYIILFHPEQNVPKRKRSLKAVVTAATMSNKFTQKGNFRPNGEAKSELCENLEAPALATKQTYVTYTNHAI
row,Compound,pEC50
1,"CCC(c1ccccc1)N1CCC2(CC1)Nc1cc(Br)ccc1C(=O)N2c1ccc(OC(F)(F)F)cc1 (centres unmarked) [Compound 48, 7′-Bromo-1-(1-phenylpropyl)-3′-(4-(trifluoromethoxy)phenyl)-1′H-spiro[piperidine-4,2′-quinazolin]-4′(3′H)-one]",> 6.00
2,"O=C1c2ccc(Br)cc2NC2(CCN(Cc3ccccc3O)CC2)N1c1ccc(OC(F)(F)F)cc1 [Compound 49, 7′-Bromo-1-(2-hydroxybenzyl)-3′-(4-(trifluoromethoxy)phenyl)-1′H-spiro[piperidine-4,2′-quinazolin]-4′(3′H)-one]",> 6.00
3,"COc1ccc(N2C(=O)c3ccccc3NC23CN(Cc2ccccc2Cl)C3)cc1 [Compound 50, 1-(2-Chlorobenzyl)-3′-(4-methoxyphenyl)-1′H-spiro[azetidine-3,2′-quinazolin]-4′(3′H)-one]",> 6.00
4,"O=C1c2ccc(F)cc2NC2(CCN(Cc3ccc(F)c(F)c3)CC2)N1c1ccc(Br)cc1 [Compound 51, 3′-(4-Bromophenyl)-1-(3,4-difluorobenzyl)-7′-fluoro-1′H-spiro[piperidine-4,2′-quinazolin]-4′(3′H)-one]",> 6.00
5,"O=C1c2ccc(Br)cc2NC2(CCN(Cc3ccc(F)c(F)c3)CC2)N1c1ccc(C(F)(F)F)cc1 [Compound 52, 7′-Bromo-1-(3,4-difluorobenzyl)-3′-(4-(trifluoromethyl)phenyl)-1′H-spiro[piperidine-4,2′-quinazolin]-4′(3′H)-one]",> 6.00
6,"O=C1c2ccc(F)cc2NC2(CN(C(c3cccc(F)c3)C(F)(F)F)C2)N1c1ccc(OC(F)(F)F)cc1 (centres unmarked) [Compound 53, 7′-Fluoro-1-(2,2,2-trifluoro-1-(3-fluorophenyl)ethyl)-3′-(4-(trifluoromethoxy)phenyl)-1′H-spiro[azetidine-3,2′-quinazolin]-4′(3′H)-one]",> 6.00
7,"COc1ccc(N2C(=O)c3ccccc3NC23CCN(Cc2ccc(Cl)c(Cl)c2)CC3)cc1 [Compound 54, 1-(3,4-Dichlorobenzyl)-3′-(4-methoxyphenyl)-1′H-spiro[piperidine-4,2′-quinazolin]-4′(3′H)-one]",> 6.00
8,"COc1ccc(N2C(=O)c3ccccc3NC23CCN(Cc2cccc(OC(F)(F)F)c2)CC3)cc1 [Compound 55, 3′-(4-Methoxyphenyl)-1-(3-(trifluoromethoxy)benzyl)-1′H-spiro[piperidine-4,2′-quinazolin]-4′(3′H)-one]",> 6.00
9,"COc1ccc(N2C(=O)c3ccccc3NC23CN(Cc2ccc(Cl)c(Cl)c2)C3)cc1 [Compound 56, 1-(3,4-Dichlorobenzyl)-3′-(4-methoxyphenyl)-1′H-spiro[azetidine-3,2′-quinazolin]-4′(3′H)-one]",> 6.00
10,"O=C1c2ccc(Br)cc2NC2(CCN(Cc3cccc4ncccc34)CC2)N1c1ccc(OC(F)(F)F)cc1 [Compound 57, 7′-Bromo-1-(quinolin-5-ylmethyl)-3′-(4-(trifluoromethoxy)phenyl)-1′H-spiro[piperidine-4,2′-quinazolin]-4′(3′H)-one]",> 6.00
11,"O=C(OCC1CC1)c1ccc2c(c1)NC1(CCN(Cc3ccc(F)c(F)c3)CC1)N(c1ccc(OC(F)(F)F)cc1)C2=O [Compound 58, Cyclopropylmethyl 1-(3,4-difluorobenzyl)-4′-oxo-3′-(4-(trifluoromethoxy)phenyl)-3′,4′-dihydro-1′H-spiro[piperidine-4,2′-quinazoline]-7′-carboxylate]",> 6.00
12,"COc1ccc(N2C(=O)c3ccc(OC)cc3NC23CCN(Cc2ccc(Cl)s2)CC3)cc1 [Compound 59, 1-((5-Chlorothiophen-2-yl)methyl)-7′-methoxy-3′-(4-methoxyphenyl)-1′H-spiro[piperidine-4,2′-quinazolin]-4′(3′H)-one]",> 6.00
13,COc1ccc(N2C(=O)c3ccc(C)cc3NC23CCN(Cc2ccc(F)c(F)c2)CC3)cc1 [Compound 60],> 6.00
14,"CCC(c1ccccc1)N1CCC2(CC1)Nc1cc(Br)ccc1C(=O)N2c1ccc(Cl)cc1 (centres unmarked) [Compound 61, 7′-Bromo-3′-(4-chlorophenyl)-1-(1-phenylpropyl)-1′H-spiro[piperidine-4,2′-quinazolin]-4′(3′H)-one]",> 6.00
15,"COc1ccc(N2C(=O)c3ccc(Cl)cc3NC23CCN(Cc2ccccc2Cl)CC3)cc1 [Compound 62, 7′-Chloro-1-(2-chlorobenzyl)-3′-(4-methoxyphenyl)-1′H-spiro[piperidine-4,2′-quinazolin]-4′(3′H)-one]",> 6.00
16,"CCc1ccc2c(c1)NC1(CCN(Cc3ccc(F)c(F)c3)CC1)N(c1ccc(OC)cc1)C2=O [Compound 63, 1-(3,4-Difluorobenzyl)-7′-ethyl-3′-(4-methoxyphenyl)-1′H-spiro[piperidine-4,2′-quinazolin]-4′(3′H)-one]",> 6.00
17,"O=C1c2ccc(F)cc2NC2(CCN(Cc3ccc(F)c(F)c3)CC2)N1c1ccc(Cl)cc1 [Compound 64, 3′-(4-Chlorophenyl)-1-(3,4-difluorobenzyl)-7′-fluoro-1′H-spiro[piperidine-4,2′-quinazolin]-4′(3′H)-one]",> 6.00
18,"COc1ccc(N2C(=O)c3ccccc3NC23CN(Cc2ccccc2OC(F)(F)F)C3)cc1 [Compound 65, 3′-(4-Methoxyphenyl)-1-(2-(trifluoromethoxy)benzyl)-1′H-spiro[azetidine-3,2′-quinazolin]-4′(3′H)-one]",> 6.00
19,"COc1ccc(N2C(=O)c3ccccc3NC23CCN(Cc2ccccc2C(F)(F)F)CC3)cc1 [Compound 66, 3′-(4-Methoxyphenyl)-1-(2-(trifluoromethyl)benzyl)-1′H-spiro[piperidine-4,2′-quinazolin]-4′(3′H)-one]",5.00 to 6.00
20,"COc1ccc(N2C(=O)c3ccccc3NC23CCN(Cc2ccccc2OC(F)(F)F)CC3)cc1 [Compound 67, 3′-(4-Methoxyphenyl)-1-(2-(trifluoromethoxy)benzyl)-1′H-spiro[piperidine-4,2′-quinazolin]-4′(3′H)-one]",5.00 to 6.00
21,"COc1ccc(N2C(=O)c3ccc(OC)cc3NC23CCN(Cc2cccc(F)c2)CC3)cc1 [Compound 68, 1-(3-Fluorobenzyl)-7′-methoxy-3′-(4-methoxyphenyl)-1′H-spiro[piperidine-4,2′-quinazolin]-4′(3′H)-one]",5.00 to 6.00
22,"O=C1c2ccc(F)cc2NC2(CCN(Cc3ccc(F)c(F)c3)CC2)N1c1ccc(OC(F)(F)F)cc1 [Compound 69, 1-(3,4-Difluorobenzyl)-7′-fluoro-3′-(4-(trifluoromethoxy)phenyl)-1′H-spiro[piperidine-4,2′-quinazolin]-4′(3′H)-one]",5.00 to 6.00
23,"O=C1c2ccc(F)cc2NC2(CN(Cc3ccccc3Cl)C2)N1c1ccc(OC(F)(F)F)cc1 [Compound 70, 1-(2-Chlorobenzyl)-7′-fluoro-3′-(4-(trifluoromethoxy)phenyl)-1′H-spiro[azetidine-3,2′-quinazolin]-4′(3′H)-one]",5.00 to 6.00
24,"O=C1c2ccc(Br)cc2NC2(CCN(Cc3ccccc3)CC2)N1c1ccc(Cl)cc1 [Compound 71, 1-Benzyl-7′-bromo-3′-(4-chlorophenyl)-1′H-spiro[piperidine-4,2′-quinazolin]-4′(3′H)-one]",5.00 to 6.00
25,"COc1ccc(N2C(=O)c3ccccc3NC23CN(Cc2ccc(C)cc2)C3)cc1 [Compound 72, 3′-(4-Methoxyphenyl)-1-(4-methylbenzyl)-1′H-spiro[azetidine-3,2′-quinazolin]-4′(3′H)-one]",5.00 to 6.00
26,"COc1ccc(N2C(=O)c3ccc(-c4ccccn4)cc3NC23CCN(Cc2ccc(F)c(F)c2)CC3)cc1 [Compound 73, 1-(3,4-Difluorobenzyl)-3′-(4-methoxyphenyl)-7′-(pyridin-2-yl)-1′H-spiro[piperidine-4,2′-quinazolin]-4′(3′H)-one]",5.00 to 6.00
